The record followed here is article PMC7108740, “Exploring the molecular structures that confer ligand selectivity for galanin type II and III receptors” (PLoS ONE, 2020).

Assay [1] deals with T1, GALR3 single mutant F^265P (Homo sapiens, UniProt O60755).
T1 construct: expressed in transfected cells; host or cells: HEK293 cells stably expressing Gqi
Put plainly: SRE-luc luciferase assay, GALR3 F265P. It counts as cell-based. The conditions noted are these: GALR3 F^265P; SRE-luc in HEK293 Gqi cells, ligand 6 h; mean ± S.E. The text has this: (§1) For domain swapping between GALR2 and GALR3, individual cDNA fragments of interest were amplified by polymerase chain reaction (PCR) with Pfu polymerase (ELPIS Biotech, Daejeon, Korea) and two specific primers, one corresponding to the 5' or 3' end of the GALR2 or GALR3 cDNA and the other to the region of overlap between the two receptors. The two resulting fragments, one from GALR2 and the other from GALR3, were subjected to a second round of PCR to generate the chimeric cDNAs. To construct single, double-, triple-, pentuple-, hextuple-, and septuple-mutant receptors, amino acids of GALR3 were substituted for the amino acids at the corresponding positions in GALR2 using PCR-based site-directed mutagenesis. All of the chimeric constructs were cloned into the pcDNA3 expression vector at HindⅢ and XbaⅠ sites. The DNA sequences of the chimeras were verified by automatic sequencing. […] The luciferase activity in 50 μl cell extract was determined using a luciferase assay system according to the standard protocol for the Synergy 2 Multi-Mode Microplate Reader (BioTek, Winooski, VT, USA). […] The concentrations of agonists that induced half-maximal stimulation (EC50) were calculated using the GraphPad PRISM5 software (GraphPad software, Inc., San Diego, CA). […]

Assay [2] concerns the target T2, GALR3 single mutant P^267R (Homo sapiens, UniProt O60755, P267R).
T2 construct: expressed in transfected cells; host or cells: HEK293 cells stably expressing Gqi
Briefly: SRE-luc luciferase assay, GALR3 P267R. It counts as cell-based. To be noted: GALR3 P^267R; SRE-luc in HEK293 Gqi cells, ligand 6 h; mean ± S.E.; SEM.
Text: as §1

T1 sequence (O60755 whole entry F265L): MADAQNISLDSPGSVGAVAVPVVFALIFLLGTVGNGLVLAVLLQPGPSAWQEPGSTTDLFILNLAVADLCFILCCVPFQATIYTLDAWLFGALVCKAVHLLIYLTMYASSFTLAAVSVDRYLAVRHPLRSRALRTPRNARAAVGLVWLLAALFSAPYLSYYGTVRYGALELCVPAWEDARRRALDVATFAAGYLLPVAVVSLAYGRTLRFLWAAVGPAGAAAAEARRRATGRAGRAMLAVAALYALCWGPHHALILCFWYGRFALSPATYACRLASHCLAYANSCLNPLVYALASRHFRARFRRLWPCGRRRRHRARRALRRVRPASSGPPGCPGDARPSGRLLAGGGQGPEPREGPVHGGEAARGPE
T2 sequence (O60755 whole entry P267R): as the sequence (O60755 whole entry F265L) above, with L265F, P267R counted along it

For `CSCC[C@H](NC(=O)[C@H](C)NC(=O)[C@H](CCC(N)=O)NC(=O)[C@@H]1CCCN1C(=O)[C@@H](NC(=O)[C@H](Cc1c[nH]c2ccccc12)NC(=O)[C@@H](N)CC(N)=O)[C@@H](C)O)C(=O)N[C@@H](CC(C)C)C(=O)N[C@@H](Cc1ccc(O)cc1)C(=O)N[C@@H](CC(C)C)C(=O)N[C@@H](CCCCN)C(=O)NCC(=O)N[C@@H](C)C(=O)N[C@@H](CCC(N)=O)C(N)=O` [SPX, reference compound], the EC50 was more than 1000 nM in assay [1] and 115 ± 48.7 nM in assay [2].
